# Counter-ions that a name gives are not always drawn. Like-named read-outs stand apart in the source and are kept apart here.
# T1: xlσ1R E169A (Xenopus laevis, UniProt Q6DCU6, E169A)
# T1 construct: hemagglutinin signal peptide (N); made in house; host or cells: Pichia pastoris GS115
# T1 sequence (Q6DCU6 1-221 E169A): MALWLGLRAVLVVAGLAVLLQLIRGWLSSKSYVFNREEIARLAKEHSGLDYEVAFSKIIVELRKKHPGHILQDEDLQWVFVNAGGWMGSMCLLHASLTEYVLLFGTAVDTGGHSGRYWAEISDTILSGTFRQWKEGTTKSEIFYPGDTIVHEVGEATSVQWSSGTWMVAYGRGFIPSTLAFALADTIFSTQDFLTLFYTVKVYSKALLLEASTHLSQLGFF
# T2: xlσ1R wild-type (Xenopus laevis, UniProt Q6DCU6)
# T2 construct: hemagglutinin signal peptide (N); made in house; host or cells: Pichia pastoris GS115
# T2 sequence (Q6DCU6 1-221): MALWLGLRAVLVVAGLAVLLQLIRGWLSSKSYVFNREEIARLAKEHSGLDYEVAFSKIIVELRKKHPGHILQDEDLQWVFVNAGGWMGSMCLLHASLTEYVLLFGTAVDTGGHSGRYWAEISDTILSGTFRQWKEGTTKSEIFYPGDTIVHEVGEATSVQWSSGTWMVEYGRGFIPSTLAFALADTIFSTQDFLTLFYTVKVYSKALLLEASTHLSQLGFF
# B1: sigma-1 receptor from Xenopus laevis (xlσ1R), wild type, purification tag removed (receptor)
# chain: MALWLGLRAVLVVAGLAVLLQLIRGWLSSKSYVFNREEIARLAKEHSGLDYEVAFSKIIVELRKKHPGHILQDEDLQWVFVNAGGWMGSMCLLHASLTEYVLLFGTAVDTGGHSGRYWAEISDTILSGTFRQWKEGTTKSEIFYPGDTIVHEVGEATSVQWSSGTWMVEYGRGFIPSTLAFALADTIFSTQDFLTLFYTVKVYSKALLLEASTHLSQLGFF
# notes: sigma-1 receptor, Xenopus laevis, NCBI NP_001087013.1, wild type; the simulation methods speak of residues 1-33 (transmembrane helix) and 34-219 of the crystal model; Cloned in a modified pPICZ plasmid after a hemagglutinin signal peptide, a decahistidine tag and a TEV protease site; the tag was removed by TEV protease before crystallisation; also called xlσ1R_(unknown-lig); xlσ1R_(prog-co); not …
# Columns and labels:
# σ1R = conditions: cited from earlier work; for Ki: inhibition of radioligand (e.g. [3H]SKF-10,047) binding to σ1R
# xlσ1R E169A = molecular target: T1, xlσ1R E169A; experiment: Microscale thermophoresis (MST) binding to xlσ1R E169A mutant
# xlσ1R wild-type = molecular target: T2, xlσ1R wild-type; experiment: Microscale thermophoresis (MST) binding to xlσ1R wild-type
# [1] = molecular target: the molecule itself; experiment: crystal structure; sitting-drop vapour diffusion at 20 °C; 0.32 M LiCl, 0.1 M sodium citrate pH 5.5, 12% PEG 4000, 10% glycerol, 15 mM sodium cholate; protein in OG/CHS; no ligand added, or with 1 mM progesterone or 1 mM DHEAS; space groups I432 (trimer by crystal symmetry) and C2 (two trimers in the asymmetric unit)
molecule,measurement,setting,value
"C[C@]12CC[C@H](O)CC1=CC[C@@H]1[C@@H]2CC[C@]2(C)C(=O)CC[C@@H]12 [DHEA, dehydroepiandrosterone]",Ki,σ1R,micromolar range or more
"CC12CCC3C(CC=C4CC(OS(=O)(=O)O)CCC43C)C1CCC2=O (stereo not drawn) [DHEAS, dehydroepiandrosterone sulfate]",Ki,σ1R,micromolar range or more
same,Kd,"xlσ1R E169A; read-out: Kd (mean), MST, xlσ1R E169A, N = 3, mean (± SD)",456 ± 17 µM
same,Kd,"xlσ1R E169A; read-out: Kd Mean, Source Data sheet Supplementary Table 3, E169A, mean of 3",456 µM
same,Kd,"xlσ1R E169A; read-out: Kd Repeat 1, Source Data sheet Supplementary Table 3, E169A, repeat 1",471 µM
same,Kd,"xlσ1R E169A; read-out: Kd Repeat 2, Source Data sheet Supplementary Table 3, E169A, repeat 2",438 µM
same,Kd,"xlσ1R E169A; read-out: Kd Repeat 3, Source Data sheet Supplementary Table 3, E169A, repeat 3",460 µM
same,Kd,"xlσ1R wild-type; read-out: Kd (mean), MST, wild-type xlσ1R, N = 3, mean (± SD)",18 ± 2.5 µM
same,Kd,"xlσ1R wild-type; read-out: Kd Mean, Source Data sheet Supplementary Table 3, wild-type, mean of 3",18 µM
same,Kd,"xlσ1R wild-type; read-out: Kd Repeat 1, Source Data sheet Supplementary Table 3, wild-type, repeat 1",17.2 µM
same,Kd,"xlσ1R wild-type; read-out: Kd Repeat 2, Source Data sheet Supplementary Table 3, wild-type, repeat 2",15.9 µM
same,Kd,"xlσ1R wild-type; read-out: Kd Repeat 3, Source Data sheet Supplementary Table 3, wild-type, repeat 3",20.8 µM
"CCCCCCCCO[C@@H]1O[C@H](CO)[C@@H](O)[C@H](O)[C@H]1O [OG, octyl-β-D-glucopyranoside]",Kd,"xlσ1R wild-type; MST binding assay, xlσ1R, printed only in peer review file, OG data removed from final manuscript, read-out: Kd",8300 ± 2700 µM
CC(=O)[C@H]1CC[C@H]2[C@@H]3CCC4=CC(=O)CC[C@]4(C)[C@H]3CC[C@]12C [progesterone],affinity for σ1R,σ1R,in μM range
same,Ki,σ1R,submicromolar range
same,Kd,"xlσ1R wild-type; MST, wild-type xlσ1R, N = 3, mean (± SD), read-out: Kd (mean)",0.94 ± 0.22 µM
same,Kd,"xlσ1R wild-type; Source Data sheet Supplementary Table 3, wild-type, repeat 1, read-out: Kd Repeat 1",0.71 µM
same,Kd,"xlσ1R wild-type; Source Data sheet Supplementary Table 3, wild-type, repeat 2, read-out: Kd Repeat 2",0.96 µM
same,Kd,"xlσ1R wild-type; Source Data sheet Supplementary Table 3, wild-type, repeat 3, read-out: Kd Repeat 3",1.14 µM
pregnenolone sulfate,Ki,σ1R,micromolar range or more
B1,stoichiometry N,[1],3

# Reference: publication PMC11224282, “Insight into binding of endogenous neurosteroid ligands to the sigma-1 receptor” (Nature Communications, 2024)
